Where “and” joins values, the source holds several entries; their conditions need not be identical. Identical values can stand only once. Inconclusive results and toxic doses are left out.
System: L1210 leukemia ip in BDF1 mice, survival T/C
Test: NCI In Vivo Anticancer Drug Screen. Data for tumor model L1210 Leukemia (intraperitoneal) in B6D2F1 (BDF1) mice
Conditions: endpoint: mean survival time, higher = longer survival
Method in brief: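 Transplanted-tumor mice were given test agent; controls received vehicle only. Survival readings from the two groups were divided (treated over control).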

[1] = dose: 100.0 mg/kg/injection, schedule: Q01DX001 (ip), vehicle: carboxymethylcellulose (CMC)
[2] = dose: 100.0 mg/kg/injection, schedule: Q01DX009 (ip), vehicle: carboxymethylcellulose (CMC)
[3] = dose: 100.0 mg/kg/injection, schedule: Q04DX002 (ip), vehicle: carboxymethylcellulose (CMC)
[4] = dose: 100.0 mg/kg/injection, schedule: Q04DX003 (ip), vehicle: carboxymethylcellulose (CMC)
[5] = dose: 200.0 mg/kg/injection, schedule: Q01DX001 (ip), vehicle: carboxymethylcellulose (CMC)
[6] = dose: 200.0 mg/kg/injection, schedule: Q01DX009 (ip), vehicle: carboxymethylcellulose (CMC)
[7] = dose: 200.0 mg/kg/injection, schedule: Q04DX002 (ip), vehicle: carboxymethylcellulose (CMC)
[8] = dose: 200.0 mg/kg/injection, schedule: Q04DX003 (ip), vehicle: carboxymethylcellulose (CMC)
[9] = dose: 400.0 mg/kg/injection, schedule: Q01DX001 (ip), vehicle: carboxymethylcellulose (CMC)
[10] = dose: 400.0 mg/kg/injection, schedule: Q04DX002 (ip), vehicle: carboxymethylcellulose (CMC)
[11] = dose: 400.0 mg/kg/injection, schedule: Q04DX003 (ip), vehicle: carboxymethylcellulose (CMC)
[12] = dose: 200.0 mg/kg/injection, schedule: Q01DX009 (ip), vehicle: Klucel (hydroxypropylcellulose) (HPC)
[13] = dose: 12.5 mg/kg/injection, schedule: Q01DX009 (ip), vehicle: saline
[14] = dose: 25.0 mg/kg/injection, schedule: Q01DX009 (ip), vehicle: saline
[15] = dose: 50.0 mg/kg/injection, schedule: Q01DX009 (ip), vehicle: saline
[16] = dose: 100.0 mg/kg/injection, schedule: Q04DX003 (ip), vehicle: saline
[17] = dose: 200.0 mg/kg/injection, schedule: Q04DX003 (ip), vehicle: saline
[18] = dose: 400.0 mg/kg/injection, schedule: Q04DX003 (ip), vehicle: saline
[19] = dose: 100.0 mg/kg/injection, schedule: Q01DX009 (ip), vehicle: saline
[20] = dose: 200.0 mg/kg/injection, schedule: Q01DX009 (ip), vehicle: saline
[21] = dose: 400.0 mg/kg/injection, schedule: Q01DX009 (ip), vehicle: saline

SMILES: CC(=O)Nc1ccc(NC(=O)Nc2ccccc2C(F)(F)F)cc1
- T/C [1]: 94 % of control and 90 % of control
- T/C [2]: 93 % of control and 97 % of control
- T/C [3]: 95 % of control and 102 % of control
- T/C [4]: 100 % of control and 117 % of control
- T/C [5]: 94 % of control and 90 % of control
- T/C [6]: 94 % of control and 96 % of control
- T/C [7]: 96 % of control and 92 % of control
- T/C [8]: 95 % of control and 99 % of control
- T/C [9]: 97 % of control
- T/C (dose: 400.0 mg/kg/injection, schedule: Q01DX009 (ip), vehicle: carboxymethylcellulose (CMC)): 98 % of control and 91 % of control
- T/C [10]: 86 % of control
- T/C [11]: 91 % of control

SMILES: COc1ccc(OC)c(/C=C/c2ccc(NC(=O)Nc3ccccc3Cl)cc2)c1
- T/C (dose: 12.5 mg/kg/injection, schedule: Q01DX009 (ip), vehicle: Klucel (hydroxypropylcellulose) (HPC)): 93 % of control
- T/C (dose: 25.0 mg/kg/injection, schedule: Q01DX009 (ip), vehicle: Klucel (hydroxypropylcellulose) (HPC)): 89 % of control
- T/C (dose: 50.0 mg/kg/injection, schedule: Q01DX009 (ip), vehicle: Klucel (hydroxypropylcellulose) (HPC)): 91 % of control
- T/C (dose: 100.0 mg/kg/injection, schedule: Q04DX002 (ip), vehicle: Klucel (hydroxypropylcellulose) (HPC)): 88 % of control
- T/C [12]: 93 % of control and 86 % of control
- T/C (dose: 200.0 mg/kg/injection, schedule: Q04DX002 (ip), vehicle: Klucel (hydroxypropylcellulose) (HPC)): 88 % of control
- T/C (dose: 300.0 mg/kg/injection, schedule: Q01DX009 (ip), vehicle: Klucel (hydroxypropylcellulose) (HPC)): 106 % of control and 89 % of control

SMILES: CN(C)[C@@H]1C(=O)C(C(=O)NCc2nc3[nH]cnc(=S)c3[nH]2)=C(O)[C@@]2(O)C(=O)C3=C(O)c4c(O)cccc4[C@@](C)(O)[C@H]3C[C@@H]12
- T/C (dose: 16.0 mg/kg/injection, schedule: Q01DX Z (ip), vehicle: carboxymethylcellulose (CMC)): 107 % of control
- T/C (dose: 32.0 mg/kg/injection, schedule: Q01DX Z (ip), vehicle: carboxymethylcellulose (CMC)): 119 % of control
- T/C (dose: 56.0 mg/kg/injection, schedule: Q01DX Z (ip), vehicle: carboxymethylcellulose (CMC)): 103 % of control
- T/C (dose: 64.0 mg/kg/injection, schedule: Q01DX Z (ip), vehicle: carboxymethylcellulose (CMC)): 112 % of control
- T/C (dose: 128.0 mg/kg/injection, schedule: Q01DX Z (ip), vehicle: carboxymethylcellulose (CMC)): 150 % of control
- T/C (dose: 192.0 mg/kg/injection, schedule: Q01DX Z (ip), vehicle: carboxymethylcellulose (CMC)): 179 % of control

SMILES: CCCCCCCS(=O)c1nc2ccccc2s1 (stereo unspecified)
- T/C (dose: 100.0 mg/kg/injection, schedule: Q04DX002 (ip), vehicle: other): 104 % of control
- T/C (dose: 200.0 mg/kg/injection, schedule: Q04DX002 (ip), vehicle: other): 91 % of control
- T/C (dose: 400.0 mg/kg/injection, schedule: Q04DX002 (ip), vehicle: other): 91 % of control

SMILES: C=CCc1cn(C2OC(COC(=O)c3ccccc3)C(OC(=O)c3ccccc3)C2OC(=O)c2ccccc2)c(=O)[nH]c1=O (stereo unspecified)
- T/C (dose: 12.5 mg/kg/injection, schedule: Q01DX005 (ip), vehicle: saline): 92 % of control
- T/C [13]: 95 % of control
- T/C (dose: 25.0 mg/kg/injection, schedule: Q01DX005 (ip), vehicle: saline): 92 % of control
- T/C [14]: 95 % of control
- T/C (dose: 50.0 mg/kg/injection, schedule: Q01DX005 (ip), vehicle: saline): 94 % of control
- T/C [15]: 98 % of control

SMILES: CN(C)C(c1ccccc1)C(CBr)C(=O)c1ccc(Br)cc1 (stereo unspecified)
- T/C [13]: 93 % of control
- T/C (dose: 12.5 mg/kg/injection, schedule: Q04DX003 (ip), vehicle: saline with Tween-80): 96 % of control
- T/C [14]: 91 % of control
- T/C (dose: 25.0 mg/kg/injection, schedule: Q04DX003 (ip), vehicle: saline with Tween-80): 102 % of control
- T/C (dose: 50.0 mg/kg/injection, schedule: Q04DX003 (ip), vehicle: saline with Tween-80): 96 % of control

SMILES: O=C(Nc1cccc(C(F)(F)F)c1)C(O)C(O)C(O)C(O)CO (stereo unspecified)
- T/C [16]: 91 % of control
- T/C [17]: 94 % of control
- T/C [18]: 91 % of control

SMILES: CCN(N=O)c1ccc(/C=C2/C=Cc3ccccc32)cc1
- T/C [1]: 95 % of control
- T/C [5]: 90 % of control
- T/C [9]: 101 % of control

SMILES: O=C(Cc1ccccc1)NCCO
- T/C [15]: 103 % of control
- T/C [19]: 98 % of control
- T/C (dose: 100.0 mg/kg/injection, schedule: Q04DX002 (ip), vehicle: saline): 109 % of control
- T/C [20]: 101 % of control
- T/C (dose: 200.0 mg/kg/injection, schedule: Q04DX002 (ip), vehicle: saline): 109 % of control
- T/C [21]: 97 % of control

SMILES: Cc1ccc(S(=O)(=O)N(C)CCCCC(=O)O)cc1
- T/C (dose: 100.0 mg/kg/injection, schedule: Q01DX009 (ip), vehicle: saline with Tween-80): 90 % of control
- T/C (dose: 200.0 mg/kg/injection, schedule: Q01DX009 (ip), vehicle: saline with Tween-80): 104 % of control
- T/C (dose: 400.0 mg/kg/injection, schedule: Q01DX009 (ip), vehicle: saline with Tween-80): 93 % of control

SMILES: N#Cc1cnccn1
- T/C [19]: 103 % of control
- T/C [16]: 93 % of control
- T/C [20]: 104 % of control
- T/C [17]: 100 % of control
- T/C [21]: 104 % of control
- T/C [18]: 93 % of control

SMILES: Cc1ccc(S(=O)(=O)OC[C@H]2CC=CC[C@H]2COS(=O)(=O)c2ccc(C)cc2)cc1
- T/C (dose: 75.0 mg/kg/injection, schedule: Q01DX009 (ip), vehicle: saline with Tween-80): 91 % of control
- T/C (dose: 100.0 mg/kg/injection, schedule: Q01DX009 (ip), vehicle: DMSO): 95 % of control
- T/C (dose: 100.0 mg/kg/injection, schedule: Q04DX003 (ip), vehicle: DMSO): 86 % of control
- T/C (dose: 100.0 mg/kg/injection, schedule: Q04DX003 (ip), vehicle: saline with Tween-80): 88 % of control
- T/C (dose: 150.0 mg/kg/injection, schedule: Q01DX009 (ip), vehicle: saline with Tween-80): 107 % of control
- T/C (dose: 200.0 mg/kg/injection, schedule: Q01DX009 (ip), vehicle: DMSO): 101 % of control
- T/C (dose: 200.0 mg/kg/injection, schedule: Q04DX003 (ip), vehicle: DMSO): 86 % of control
- T/C (dose: 200.0 mg/kg/injection, schedule: Q04DX003 (ip), vehicle: saline with Tween-80): 86 % of control
- T/C (dose: 300.0 mg/kg/injection, schedule: Q01DX009 (ip), vehicle: saline with Tween-80): 101 % of control
- T/C (dose: 400.0 mg/kg/injection, schedule: Q04DX003 (ip), vehicle: DMSO): 88 % of control

SMILES: N#CC1(NC(Cc2ccccc2)c2ccccc2)CCCC1 (stereo unspecified)
- T/C (dose: 100.0 mg/kg/injection, schedule: Q01DX009 (ip), vehicle: Klucel (hydroxypropylcellulose) (HPC)): 114 % of control
- T/C [12]: 95 % of control
- T/C (dose: 400.0 mg/kg/injection, schedule: Q01DX009 (ip), vehicle: Klucel (hydroxypropylcellulose) (HPC)): 92 % of control

SMILES: Nc1nc(N)c(N)c(N=O)n1
- T/C (dose: 100.0 mg/kg/injection, schedule: Q01DX Z (ip), vehicle: methylcellulose (MC)): 86 % of control

SMILES: CC(=O)OC(C(=O)O)C(OC(C)=O)C(=O)NCCO (stereo unspecified)
- T/C (dose: 100.0 mg/kg/injection, schedule: Q01DX001 (ip), vehicle: water): 94 % of control
- T/C (dose: 100.0 mg/kg/injection, schedule: Q04DX003 (ip), vehicle: water): 87 % of control
- T/C (dose: 200.0 mg/kg/injection, schedule: Q01DX001 (ip), vehicle: water): 96 % of control
- T/C (dose: 200.0 mg/kg/injection, schedule: Q04DX003 (ip), vehicle: water): 95 % of control
- T/C (dose: 400.0 mg/kg/injection, schedule: Q01DX001 (ip), vehicle: water): 94 % of control
- T/C (dose: 400.0 mg/kg/injection, schedule: Q04DX003 (ip), vehicle: water): 97 % of control

SMILES: CCCCCCCCCCCCCCCC(=O)N(CCC)CCC
- T/C [1]: 98 % of control
- T/C [2]: 105 % of control and 90 % of control
- T/C [3]: 102 % of control
- T/C [4]: 102 % of control
- T/C [5]: 99 % of control
- T/C [6]: 100 % of control and 101 % of control
- T/C [7]: 94 % of control
- T/C [8]: 104 % of control
- T/C [9]: 99 % of control
- T/C [10]: 96 % of control
- T/C [11]: 104 % of control

— PubChem BioAssay AID248 (DTP/NCI, 2004)
